Values of other authors in paper PMC8198792, “Prediction of Anticancer Peptides with High Efficacy and Low Toxicity by Hybrid Model Based on 3D Structure of Peptides” (International Journal of Molecular Sciences, 2021).
Where two headings read alike, the source gives them in different places.

Assays:
cancer cell lines = tested on: cancer cell lines; design: method as in 6 sources, ref CancerPPD [45] and SATPdb ||| ref CancerPPD/SATPdb ||| ref CancerPPD, SATPdb, Swissprot (PDB) ||| ref CancerPPD/SATPdb/Swissprot(PDB) ||| ref CancerPPD / SATPdb ||| ...; conditions: cited from earlier work
Text: Supplement ijms-22-05630-s001.zip/ACPs(seguence).xlsx, sheet "D1" | column: Activity || Supplement ijms-22-05630-s001.zip/ACPs(seguence).xlsx, sheet "D2" | column: Activity || Supplement ijms-22-05630-s001.zip/ACPs(seguence).xlsx, sheet "D3" | column: Activity || (+ 2 further places)

[1] = tested on: many types of cells, including non-cancer cells; conditions: cited from earlier work; for Activity: toxic peptides dataset TD2, class label 1 (toxic, positive set) or 0 (non-toxic AMP, negative set), ref SATPdb
[2] = ACPs dataset D3 (sheet "D3"), label 1 = ACP, 0 = non-ACP, ref CancerPPD/SATPdb
[3] = ACPs dataset D4 (sheet "D4"), label 1 = ACP, 0 = non-ACP, ref CancerPPD / SATPdb
[4] = ACPs dataset D5, sheet "D5", label 1 = ACP, 0 = non-ACP, ref CancerPPD [45] and SATPdb
[5] = ACPs dataset D3 (supplement sheet "D3"), 1 = ACP, 0 = non-ACP, ref CancerPPD [45] and SATPdb

Substance | Activity (cancer cell lines; [2]) | Activity (cancer cell lines; [3]) | Activity (cancer cell lines; [4]) | Activity [1] | Activity (cancer cell lines; [5]) | Activity (cancer cell lines; ACPs dataset D1, 1 = ACP (positive), 0 = non-ACP (negative), label taken from databases, ref CancerPPD [45] and SATPdb) | Activity (cancer cell lines; ACPs dataset D4 (sheet "D4"), label 1 = ACP (CancerPPD ID), 0 = non-ACP (non-anticancer AMP, SATPdb ID), ref CancerPPD [45] and SATPdb) | Activity (dataset TD1, toxic 1 / non-toxic 0) ([1]; natural toxic peptide dataset TD1, label collected from database, ref SATPdb [34])
ILQKAVLDCLKAAGSSLSKAAITAIYNKIT [satpdb12333] | 0 | 0 | 0 | 0 | – | – | – | –
IWSAIWSGIKGLL [satpdb12218] | 0 | 0 | 0 | 0 | – | – | – | –
KCNTATCATQRLANFLVHSSNNFGAILSSTNVGSNTY [satpdb11357] | – | 0 | 0 | 0 | 0 | – | – | –
KFGKIVGKVLKQLKKVSAVAKVAMKKG [satpdb11425] | – | 0 | 0 | 1 | 0 | – | – | –
KLGFENFLVKALKTVMHVPTSPLL [satpdb10107] | – | 0 | 0 | 1 | 0 | – | – | –
KWKSFIKKLTSAAKKVVTTAKPLISS [satpdb10912] | – | 0 | 0 | 0 | 0 | – | – | –
KWKVFKKIEKMGRNIRNGIVKAGPAIAVLGEAKAILS [satpdb11163] | – | 0 | 0 | 0 | 0 | – | – | –
LIGPVLGLVGSALGGLLKKI [satpdb10453] | – | 0 | 0 | 1 | 0 | – | – | –
LLSLVPHAINAVSAIAKHF [satpdb10338] | – | 0 | 0 | 0 | 0 | – | – | –
LRPAILVRIK [satpdb13588] | 0 | 0 | 0 | 0 | – | – | – | –
LSPNLLKSLL [satpdb13883] | 0 | 0 | 0 | 0 | – | – | – | –
NLLGSLLKTGLKVGSNLL [satpdb11204] | – | 0 | 0 | 1 | 0 | – | – | –
RADTQTYQPYNKDWIKEKIYVLLRRQAQQAGK [satpdb14189] | 0 | 0 | 0 | 0 | – | – | – | –
RGGRLCYCRPRFCVCVGR [satpdb12800] | 0 | 0 | 0 | 0 | – | – | – | –
RGGRLCYCRRRFCICV [satpdb14720] | 0 | 0 | 0 | 0 | – | – | – | –
RWKIFKKIEKVGRNVRDGIIKAGPAVAVVGQAATVVK [satpdb12319] | 0 | 0 | 0 | 0 | – | – | – | –
SILPTIVSFLTKFL [satpdb10195] | – | 0 | 0 | 0 | 0 | – | – | –
VGKVLKQLKKVSAVAKVAMKKGAALLK [satpdb11069] | – | 0 | 0 | 1 | 0 | – | – | –
VIPFVASVAAEMMQHVYCAASKKC [satpdb10043, toxic peptide, datasets TD1 and TD3] | – | – | – | – | – | 0 | 0 | 1
VIPIVSGLLSSLL [satpdb12918] | 0 | 0 | 0 | 0 | – | – | – | –
VKLfPVKLfP [satpdb12197] | 0 | 0 | 0 | 1 | – | – | – | –
VOLFPFFNQY [satpdb13046] | 0 | 0 | 0 | 0 | – | – | – | –
VOLFPVOLFP [satpdb12868] | 0 | 0 | 0 | 0 | – | – | – | –
VOLFPWFNQY [satpdb12517] | 0 | 0 | 0 | 0 | – | – | – | –
VOLFPWWNQY [satpdb13995] | 0 | 0 | 0 | 0 | – | – | – | –
